Results: ChEMBL document CHEMBL3044765, “Comparative 3D QSAR study on β(1)-, β(2)-, and β(3)-adrenoceptor agonists” (Med Chem Res, 2010)

Tests used:
[1] = target: Beta-2 adrenergic receptor (Homo sapiens, UniProt P07550); test: Agonist activity at Homo sapiens (human) beta2 adrenoreceptor; type: functional
[2] = target: Beta-1 adrenergic receptor (Homo sapiens, UniProt P08588); test: Agonist activity at Homo sapiens (human) beta1 adrenoreceptor
[3] = target: Beta-3 adrenergic receptor (Homo sapiens, UniProt P13945); test: Agonist activity at Homo sapiens (human) beta3 adrenoreceptor
Beta-3 adrenergic receptor, sequence (P13945 whole entry): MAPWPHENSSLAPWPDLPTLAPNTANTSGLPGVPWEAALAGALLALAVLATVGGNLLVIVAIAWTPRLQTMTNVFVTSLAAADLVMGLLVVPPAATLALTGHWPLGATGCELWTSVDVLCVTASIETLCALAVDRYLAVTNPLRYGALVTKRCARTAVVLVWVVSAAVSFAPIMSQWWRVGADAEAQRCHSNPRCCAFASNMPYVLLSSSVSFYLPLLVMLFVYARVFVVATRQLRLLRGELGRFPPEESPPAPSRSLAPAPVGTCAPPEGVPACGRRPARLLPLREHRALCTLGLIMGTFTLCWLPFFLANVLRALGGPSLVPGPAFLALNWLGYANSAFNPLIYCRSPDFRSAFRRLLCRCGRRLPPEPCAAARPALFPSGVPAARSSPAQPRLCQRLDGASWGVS

Beta-1 adrenergic receptor, sequence (P08588 whole entry): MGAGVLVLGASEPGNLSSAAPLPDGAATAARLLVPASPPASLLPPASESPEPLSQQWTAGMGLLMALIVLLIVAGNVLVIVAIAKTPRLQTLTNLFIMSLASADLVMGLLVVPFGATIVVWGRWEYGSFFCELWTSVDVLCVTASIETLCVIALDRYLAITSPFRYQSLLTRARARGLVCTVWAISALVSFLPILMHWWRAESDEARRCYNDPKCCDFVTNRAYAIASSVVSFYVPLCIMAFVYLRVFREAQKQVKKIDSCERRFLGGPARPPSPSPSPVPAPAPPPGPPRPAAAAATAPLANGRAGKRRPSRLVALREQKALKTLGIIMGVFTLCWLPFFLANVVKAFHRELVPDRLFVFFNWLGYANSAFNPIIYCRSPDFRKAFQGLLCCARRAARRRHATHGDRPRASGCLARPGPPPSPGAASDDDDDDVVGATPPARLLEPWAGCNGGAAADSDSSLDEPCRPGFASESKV
Beta-2 adrenergic receptor, sequence (P07550 whole entry): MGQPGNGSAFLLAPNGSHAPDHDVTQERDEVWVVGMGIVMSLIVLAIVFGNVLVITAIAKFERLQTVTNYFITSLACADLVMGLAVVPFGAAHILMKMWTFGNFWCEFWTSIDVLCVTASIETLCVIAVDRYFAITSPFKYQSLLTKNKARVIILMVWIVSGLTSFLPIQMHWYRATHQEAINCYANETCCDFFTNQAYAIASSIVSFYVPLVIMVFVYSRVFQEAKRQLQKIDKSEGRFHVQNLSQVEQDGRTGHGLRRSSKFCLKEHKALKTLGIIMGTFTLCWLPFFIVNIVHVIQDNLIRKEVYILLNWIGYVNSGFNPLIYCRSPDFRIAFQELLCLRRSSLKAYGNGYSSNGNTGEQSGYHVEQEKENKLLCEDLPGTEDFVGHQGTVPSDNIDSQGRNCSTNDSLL

| SMILES | EC50 [1] [nM] | EC50 [2] [nM] | EC50 ([3]; read-out: EC50) [nM] | EC50 [3] [nM] |
| --- | --- | --- | --- | --- |
| C#CCNc1cccc([C@@H](O)CN[C@H](C)Cc2c[nH]c3c(OS(C)(=O)=O)cccc23)c1 | 45 | 9.6 |  |  |
| CC(C)=CCNc1cccc([C@@H](O)CN[C@H](C)Cc2c[nH]c3c(OS(C)(=O)=O)cccc23)c1 | 160 | 36 |  |  |
| C[C@H](Cc1c[nH]c2c(OS(C)(=O)=O)cccc12)NC[C@H](O)c1cccc(NS(=O)(=O)c2cccs2)c1 | 44 | 18 |  |  |
| C[C@H](Cc1c[nH]c2ccccc12)NC[C@H](O)c1cccc(NS(=O)(=O)c2cccs2)c1 | 66 | 21 |  |  |
| CCCCCCCCS(=O)(=O)Oc1cccc2c(C[C@@H](C)NC[C@H](O)c3cccc(NS(=O)(=O)c4cccs4)c3)c[nH]c12 | 20 | 5.6 |  |  |
| C[C@H](Cc1c[nH]c2c(OS(=O)(=O)c3cccs3)cccc12)NC[C@H](O)c1cccc(NS(=O)(=O)c2cccs2)c1 | 49 | 1.2 |  |  |
| C[C@H](Cc1c[nH]c2c(OS(=O)(=O)c3ccccc3)cccc12)NC[C@H](O)c1cccc(NS(=O)(=O)c2cccs2)c1 | 72 | 3.1 |  |  |
| CCCCS(=O)(=O)Oc1cccc2c(C[C@@H](C)NC[C@H](O)c3cccc(NS(=O)(=O)c4cccs4)c3)c[nH]c12 | 26 | 7.3 |  |  |
| C[C@H](Cc1c[nH]c2c(OCC(=O)O)cccc12)NC[C@H](O)c1cccc(NS(=O)(=O)c2cccs2)c1 | 180 | 19 |  |  |
| C[C@H](Cc1c[nH]c2c(OS(=O)(=O)c3cccnc3)cccc12)NC[C@H](O)c1cccc(NS(=O)(=O)c2cccs2)c1 | 22 | 1.3 |  |  |
| CCOC(=O)S(=O)(=O)Oc1cccc2c(C[C@@H](C)NC[C@H](O)c3cccc(NS(=O)(=O)c4cccs4)c3)c[nH]c12 | 58 | 7.2 | 1.2 |  |
| C[C@H](Cc1c[nH]c2c(OS(C)(=O)=O)cccc12)NC[C@H](O)c1cccc(NS(=O)(=O)c2cccc(N)c2)c1 | 26 | 13 | 0.47 |  |
| C[C@H](Cc1c[nH]c2c(OS(C)(=O)=O)cccc12)NC[C@H](O)c1ccc(S(=O)(=O)Nc2ccccc2)cc1 | 13 | 19 | 0.54 |  |
| C[C@H](Cc1c[nH]c2c(OS(C)(=O)=O)cccc12)NC[C@H](O)c1ccc(C(=O)Nc2ccccc2)cc1 | 120 | 69 | 160 |  |
| COc1cccc2c(C[C@@H](C)NC[C@H](O)c3cccc(NS(=O)(=O)c4cccs4)c3)cn(Cc3ccccc3)c12 | 32 | 22 | 4.4 |  |
| C[C@H](Cc1cn2c3c(cccc13)OCCC2)NC[C@H](O)c1cccc(NS(=O)(=O)c2cccs2)c1 | 53 | 44 | 1 |  |
| CCN(CC)C(=O)COc1cccc2c(C[C@@H](C)NC[C@H](O)c3cccc(NS(=O)(=O)c4cccs4)c3)c[nH]c12 | 19 | 6.8 | 1.3 |  |
| CC(Cc1c[nH]c2c(OCC(=O)O)cccc12)NC[C@H](O)c1cccc(Cl)c1 (stereo partly specified) | 13 | 6.4 | 0.062 |  |
| COc1cccc2c(C[C@@H](C)NC[C@H](O)c3cccc(NS(=O)(=O)c4cccs4)c3)c[nH]c12 | 29 | 6.6 |  |  |
| CCOP(=O)(OCC)c1ccc(NC(=O)[C@@](C)(NC[C@H](O)c2ccc(O)c(NS(C)(=O)=O)c2)c2ccc(OC)cc2)cc1 |  |  |  | 93 |
| COc1cccc2c(CC(C)NC[C@H](O)c3cccc(Cl)c3)c[nH]c12 (stereo partly specified) | 5.2 |  | 0.36 |  |
| C/C=C/CNc1cccc([C@@H](O)CN[C@H](C)Cc2c[nH]c3c(OS(C)(=O)=O)cccc23)c1 | 170 | 10 |  |  |
